Measured values as given in patent publication US20260078103A1, “ISOQUINOLONES AS PI3K INHIBITORS” (OnKure, Inc., priority 2022, published 2026).

System: phosphorylation of AKT (pAKT) in T47D cells expressing mutant PI3Ka (H1047R)
Test: In vitro cell pAKT (Ser473) HTRF, T47D cells
Type: cell-based
Settings: Homo sapiens, T47D, 6 h, cellular pAKT, T47D cells, mutant PI3Ka (H1047R), 6 hours; read-out: Avg T-47D IC50
In short: (§1)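 pAKT (Ser473) was quantified by HTRF in lysates from cells exposed 6 h at 37 °C to 10-point compound series, with T47D in insulin-supplemented RPMI/10% FBS and SKBR3 in McCoy's 5a/10% FBS. Controls: 0.1% DMSO (high) and 10 uM alpelisib (low). IC50 from sigmoidal curve fitting.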

SMILES | IC50 [µM]
Cc1cc([C@@H](C)Nc2ccccc2C(=O)O)c2cc(N3C[C@H]4CN(CC(F)(F)F)C[C@H]4C3)n(C)c(=O)c2c1 [Example 73] | 0.001 to 0.5
Cc1ccc(-c2cc3c(C(C)Nc4ccccc4C(=O)O)cc(C)cc3c(=O)n2C)nc1 (stereo not shown) [Example 74] | 0.5 to 2
Cc1cc(C(C)Nc2ccccc2C(=O)O)c2cc(-c3cc4ccc(F)cc4[nH]3)n(C)c(=O)c2c1 (stereo not shown) [Example 75] | 0.001 to 0.5
Cc1cc(C(C)Nc2ccccc2C(=O)O)c2cc(N3Cc4cc(F)cc(F)c4C3)n(C)c(=O)c2c1 (stereo not shown) [Example 84] | 0.001 to 0.5
Cc1cc(C(C)Nc2ccccc2C(=O)O)c2cc(N3CC4CCC(C4)C3)n(C)c(=O)c2c1 (stereo not shown) [Example 85] | 0.001 to 0.5
Cc1cc(C(C)Nc2ccccc2C(=O)O)c2cc(N3CCc4ncncc4C3)n(C)c(=O)c2c1 (stereo not shown) [Example 86] | 0.5 to 2
CC(=O)N1C[C@@H]2CN(c3cc4c(C(C)Nc5ccccc5C(=O)O)cc(C)cc4c(=O)n3C)C[C@H]2C1 (stereo partly shown) [Example 87] | 2 to 15
Cc1cc(C(C)Nc2ccc(Cl)nc2C(=O)O)c2cc(N3CCC(C)(C)CC3)n(C)c(=O)c2c1 (stereo not shown) [Example 88] | 0.5 to 2
Cc1cc(C(C)Nc2ccccc2C(=O)O)c2cc(N3Cc4c(F)c(F)c(F)c(F)c4C3)n(C)c(=O)c2c1 (stereo not shown) [Example 89] | 0.5 to 2
Cc1cc(C(C)Nc2ccccc2C(=O)O)c2cc(N3CCC4(CCN(CC(F)(F)F)C4)CC3)n(C)c(=O)c2c1 (stereo not shown) [Example 94] | 0.001 to 0.5
COCCC(=O)N1CCN(c2cc3c(C(C)Nc4ccccc4C(=O)O)cc(C)cc3c(=O)n2C)CC1 (stereo not shown) [Example 95] | 0.5 to 2
Cc1cc([C@@H](C)Nc2ccccc2C(=O)O)c2cc(N3CC[C@@]4(CCCN(CC(F)(F)F)C4)C3)n(C)c(=O)c2c1 [Example 98] | 0.001 to 0.5
Cc1cc([C@@H](C)Nc2ccccc2C(=O)O)c2cc(N3CC[C@]4(CCCN(CC(F)(F)F)C4)C3)n(C)c(=O)c2c1 [Example 99] | 0.001 to 0.5
Cc1cc([C@@H](C)Nc2ccc(Cl)nc2C(=O)O)c2cc(-c3ccc(C)nc3)n(C)c(=O)c2c1 [Example 130] | 0.001 to 0.5
Cc1cc(C(C)Nc2ccccc2C(=O)O)c2cc(N3CCN4CC(F)(F)C[C@@H]4C3)n(C)c(=O)c2c1 (stereo partly shown) [Example 140] | 0.001 to 0.5
COc1cccc(N2CCN(c3cc4c([C@@H](C)Nc5ccccc5C(=O)O)cc(C)cc4c(=O)n3C)CC2)c1 [Example 147] | 0.001 to 0.5

System: SKBR3 cells express WT PI3Ka
Test: In vitro cell proliferation, SKBR3 cells (CellTiter-Glo)
Type: cell-based
Settings: Homo sapiens, SK-BR-3, 72 h, inhibition of proliferation
In short: (§2)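 T47D (PI3Kα H1047R; RPMI, 10% FBS, insulin 0.2 units/mL) or SKBR3 (WT PI3Kα; McCoys 5a, 10% FBS) cells seeded at 1,500 cells/well on 10-point compound dilutions, grown 72 h at 37 °C. CellTiter-Glo luminescence; inhibition normalised to 0.1% DMSO and 10 uM alpelisib, EC50 from four-parameter fit.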

SMILES | EC50 [µM]
Cc1cc([C@@H](C)Nc2ccccc2C(=O)O)c2cc(N3C[C@H]4CN(CC(F)(F)F)C[C@H]4C3)n(C)c(=O)c2c1 [Example 73] | > 15
Cc1ccc(-c2cc3c(C(C)Nc4ccccc4C(=O)O)cc(C)cc3c(=O)n2C)nc1 (stereo not shown) [Example 74] | > 15
Cc1cc(C(C)Nc2ccccc2C(=O)O)c2cc(-c3cc4ccc(F)cc4[nH]3)n(C)c(=O)c2c1 (stereo not shown) [Example 75] | > 15
Cc1cc(C(C)Nc2ccccc2C(=O)O)c2cc(N3Cc4cc(F)cc(F)c4C3)n(C)c(=O)c2c1 (stereo not shown) [Example 84] | > 15
Cc1cc(C(C)Nc2ccccc2C(=O)O)c2cc(N3CC4CCC(C4)C3)n(C)c(=O)c2c1 (stereo not shown) [Example 85] | > 15
Cc1cc(C(C)Nc2ccccc2C(=O)O)c2cc(N3CCc4ncncc4C3)n(C)c(=O)c2c1 (stereo not shown) [Example 86] | > 15
CC(=O)N1C[C@@H]2CN(c3cc4c(C(C)Nc5ccccc5C(=O)O)cc(C)cc4c(=O)n3C)C[C@H]2C1 (stereo partly shown) [Example 87] | > 15
Cc1cc(C(C)Nc2ccc(Cl)nc2C(=O)O)c2cc(N3CCC(C)(C)CC3)n(C)c(=O)c2c1 (stereo not shown) [Example 88] | 2 to 15
Cc1cc(C(C)Nc2ccccc2C(=O)O)c2cc(N3Cc4c(F)c(F)c(F)c(F)c4C3)n(C)c(=O)c2c1 (stereo not shown) [Example 89] | > 15
Cc1cc(C(C)Nc2ccccc2C(=O)O)c2cc(N3CCC4(CCN(CC(F)(F)F)C4)CC3)n(C)c(=O)c2c1 (stereo not shown) [Example 94] | 2 to 15
COCCC(=O)N1CCN(c2cc3c(C(C)Nc4ccccc4C(=O)O)cc(C)cc3c(=O)n2C)CC1 (stereo not shown) [Example 95] | > 15
Cc1cc([C@@H](C)Nc2ccccc2C(=O)O)c2cc(N3CC[C@@]4(CCCN(CC(F)(F)F)C4)C3)n(C)c(=O)c2c1 [Example 98] | > 15
Cc1cc([C@@H](C)Nc2ccccc2C(=O)O)c2cc(N3CC[C@]4(CCCN(CC(F)(F)F)C4)C3)n(C)c(=O)c2c1 [Example 99] | 2 to 15
Cc1cc([C@@H](C)Nc2ccc(Cl)nc2C(=O)O)c2cc(-c3ccc(C)nc3)n(C)c(=O)c2c1 [Example 130] | 2 to 15
Cc1cc(C(C)Nc2ccccc2C(=O)O)c2cc(N3CCN4CC(F)(F)C[C@@H]4C3)n(C)c(=O)c2c1 (stereo partly shown) [Example 140] | > 15
COc1cccc(N2CCN(c3cc4c([C@@H](C)Nc5ccccc5C(=O)O)cc(C)cc4c(=O)n3C)CC2)c1 [Example 147] | > 15

System: phosphorylation of AKT (pAKT) in SKBR3 cells express WT PI3Ka
Test: In vitro cell pAKT (Ser473) HTRF, SKBR3 cells
Type: cell-based
Settings: Homo sapiens, SK-BR-3, 6 h, cellular pAKT
In short: as §1

SMILES | IC50 [µM]
Cc1cc([C@@H](C)Nc2ccccc2C(=O)O)c2cc(N3C[C@H]4CN(CC(F)(F)F)C[C@H]4C3)n(C)c(=O)c2c1 [Example 73] | > 15
Cc1ccc(-c2cc3c(C(C)Nc4ccccc4C(=O)O)cc(C)cc3c(=O)n2C)nc1 (stereo not shown) [Example 74] | > 15
Cc1cc(C(C)Nc2ccccc2C(=O)O)c2cc(-c3cc4ccc(F)cc4[nH]3)n(C)c(=O)c2c1 (stereo not shown) [Example 75] | > 15
Cc1cc(C(C)Nc2ccccc2C(=O)O)c2cc(N3Cc4cc(F)cc(F)c4C3)n(C)c(=O)c2c1 (stereo not shown) [Example 84] | > 15
Cc1cc(C(C)Nc2ccccc2C(=O)O)c2cc(N3CC4CCC(C4)C3)n(C)c(=O)c2c1 (stereo not shown) [Example 85] | 2 to 15
Cc1cc(C(C)Nc2ccccc2C(=O)O)c2cc(N3CCc4ncncc4C3)n(C)c(=O)c2c1 (stereo not shown) [Example 86] | > 15
CC(=O)N1C[C@@H]2CN(c3cc4c(C(C)Nc5ccccc5C(=O)O)cc(C)cc4c(=O)n3C)C[C@H]2C1 (stereo partly shown) [Example 87] | > 15
Cc1cc(C(C)Nc2ccc(Cl)nc2C(=O)O)c2cc(N3CCC(C)(C)CC3)n(C)c(=O)c2c1 (stereo not shown) [Example 88] | > 15
Cc1cc(C(C)Nc2ccccc2C(=O)O)c2cc(N3Cc4c(F)c(F)c(F)c(F)c4C3)n(C)c(=O)c2c1 (stereo not shown) [Example 89] | > 15
Cc1cc(C(C)Nc2ccccc2C(=O)O)c2cc(N3CCC4(CCN(CC(F)(F)F)C4)CC3)n(C)c(=O)c2c1 (stereo not shown) [Example 94] | 2 to 15
COCCC(=O)N1CCN(c2cc3c(C(C)Nc4ccccc4C(=O)O)cc(C)cc3c(=O)n2C)CC1 (stereo not shown) [Example 95] | > 15
Cc1cc([C@@H](C)Nc2ccccc2C(=O)O)c2cc(N3CC[C@@]4(CCCN(CC(F)(F)F)C4)C3)n(C)c(=O)c2c1 [Example 98] | > 15
Cc1cc([C@@H](C)Nc2ccccc2C(=O)O)c2cc(N3CC[C@]4(CCCN(CC(F)(F)F)C4)C3)n(C)c(=O)c2c1 [Example 99] | > 15
Cc1cc([C@@H](C)Nc2ccc(Cl)nc2C(=O)O)c2cc(-c3ccc(C)nc3)n(C)c(=O)c2c1 [Example 130] | 2 to 15
Cc1cc(C(C)Nc2ccccc2C(=O)O)c2cc(N3CCN4CC(F)(F)C[C@@H]4C3)n(C)c(=O)c2c1 (stereo partly shown) [Example 140] | > 15
COc1cccc(N2CCN(c3cc4c([C@@H](C)Nc5ccccc5C(=O)O)cc(C)cc4c(=O)n3C)CC2)c1 [Example 147] | 2 to 15

System: T47D cells expressing mutant PI3Ka (H1047R)
Test: In vitro cell proliferation, T47D cells (CellTiter-Glo)
Type: cell-based
Settings: Homo sapiens, T47D, 72 h, inhibition of proliferation, read-out: Avg T-47D EC50
In short: as §2

SMILES | EC50 [µM]
Cc1cc([C@@H](C)Nc2ccccc2C(=O)O)c2cc(N3C[C@H]4CN(CC(F)(F)F)C[C@H]4C3)n(C)c(=O)c2c1 [Example 73] | 0.5 to 2
Cc1ccc(-c2cc3c(C(C)Nc4ccccc4C(=O)O)cc(C)cc3c(=O)n2C)nc1 (stereo not shown) [Example 74] | 2 to 15
Cc1cc(C(C)Nc2ccccc2C(=O)O)c2cc(-c3cc4ccc(F)cc4[nH]3)n(C)c(=O)c2c1 (stereo not shown) [Example 75] | 0.5 to 2
Cc1cc(C(C)Nc2ccccc2C(=O)O)c2cc(N3Cc4cc(F)cc(F)c4C3)n(C)c(=O)c2c1 (stereo not shown) [Example 84] | 0.5 to 2
Cc1cc(C(C)Nc2ccccc2C(=O)O)c2cc(N3CC4CCC(C4)C3)n(C)c(=O)c2c1 (stereo not shown) [Example 85] | 0.001 to 0.5
Cc1cc(C(C)Nc2ccccc2C(=O)O)c2cc(N3CCc4ncncc4C3)n(C)c(=O)c2c1 (stereo not shown) [Example 86] | 2 to 15
CC(=O)N1C[C@@H]2CN(c3cc4c(C(C)Nc5ccccc5C(=O)O)cc(C)cc4c(=O)n3C)C[C@H]2C1 (stereo partly shown) [Example 87] | 2 to 15
Cc1cc(C(C)Nc2ccc(Cl)nc2C(=O)O)c2cc(N3CCC(C)(C)CC3)n(C)c(=O)c2c1 (stereo not shown) [Example 88] | 0.5 to 2
Cc1cc(C(C)Nc2ccccc2C(=O)O)c2cc(N3Cc4c(F)c(F)c(F)c(F)c4C3)n(C)c(=O)c2c1 (stereo not shown) [Example 89] | 2 to 15
Cc1cc(C(C)Nc2ccccc2C(=O)O)c2cc(N3CCC4(CCN(CC(F)(F)F)C4)CC3)n(C)c(=O)c2c1 (stereo not shown) [Example 94] | 0.001 to 0.5
COCCC(=O)N1CCN(c2cc3c(C(C)Nc4ccccc4C(=O)O)cc(C)cc3c(=O)n2C)CC1 (stereo not shown) [Example 95] | 0.5 to 2
Cc1cc([C@@H](C)Nc2ccccc2C(=O)O)c2cc(N3CC[C@@]4(CCCN(CC(F)(F)F)C4)C3)n(C)c(=O)c2c1 [Example 98] | 0.5 to 2
Cc1cc([C@@H](C)Nc2ccccc2C(=O)O)c2cc(N3CC[C@]4(CCCN(CC(F)(F)F)C4)C3)n(C)c(=O)c2c1 [Example 99] | 0.001 to 0.5
Cc1cc([C@@H](C)Nc2ccc(Cl)nc2C(=O)O)c2cc(-c3ccc(C)nc3)n(C)c(=O)c2c1 [Example 130] | 0.001 to 0.5
Cc1cc(C(C)Nc2ccccc2C(=O)O)c2cc(N3CCN4CC(F)(F)C[C@@H]4C3)n(C)c(=O)c2c1 (stereo partly shown) [Example 140] | 0.001 to 0.5
COc1cccc(N2CCN(c3cc4c([C@@H](C)Nc5ccccc5C(=O)O)cc(C)cc4c(=O)n3C)CC2)c1 [Example 147] | 0.001 to 0.5
